Patent US4692511A, “Peptide antagonists for the C5a anaphylatoxin” (Immunetech Pharmaceuticals, priority 1984, dated 1987)
Peptide text beside a SMILES is read from it.

Molecular target: T1, C5a receptor (Homo sapiens, UniProt P21730)
T1 sequence (P21730 1-350): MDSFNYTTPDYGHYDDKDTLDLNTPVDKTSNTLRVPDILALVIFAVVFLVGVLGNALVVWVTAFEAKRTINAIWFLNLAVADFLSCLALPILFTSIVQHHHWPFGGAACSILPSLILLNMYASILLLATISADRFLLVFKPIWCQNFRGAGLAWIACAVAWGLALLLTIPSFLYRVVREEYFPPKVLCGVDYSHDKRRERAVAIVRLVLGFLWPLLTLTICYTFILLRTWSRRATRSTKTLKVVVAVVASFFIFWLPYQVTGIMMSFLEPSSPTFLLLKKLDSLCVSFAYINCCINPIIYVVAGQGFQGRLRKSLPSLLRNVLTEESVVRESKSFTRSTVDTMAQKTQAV
Test: C5a receptor blocking activity of the peptides of the invention

## C[C@H](NC(=O)CNC(=O)[C@@H](N)CC(=O)O)C(=O)O [Asp-Gly-Ala] (H-Asp-Gly-Ala-OH)
  C5a blocking activity: displays C5a blocking activity
